Experiment: Uptake of colonically absorbable forms of levodopa after intracolonic administration in rats
Type: in vivo
Settings: whole blood, other: intracolonic (directly into the colon via cannula), rat, intraperitoneal carbidopa
Procedure: Sustained release oral dosage forms, which release drug slowly over periods of about 6 to about 24 hours, generally release a significant proportion of the dose within the colon. Thus, drugs suitable for use in such dosage forms should be colonically absorbed.
Rats were obtained commercially and were pre-cannulated in the both the ascending colon and the jugular vein. Animals were conscious at the time of the experiment. […] Carbidopa was administered as a solution in water or citrate buffer either orally, intraperitoneally, or intracolonically at a dose equivalent to 25 mg of carbidopa per kg. […] Blood was then further quenched with methanol/perchloric acid to prevent hydrolysis of the levodopa prodrug. Blood samples were analyzed as described below.
Methanol/perchloric acid (300 μL) was added to blank 1.5 mL Eppendorf tubes. Rat blood (300 μL) was collected into EDTA tubes containing 75 μL of sodium metabisulfite at different times and vortexed to mix. A fixed volume of blood (100 μL) was immediately added into the Eppendorf tube and vortexed to mix. […] Methanol/perchloric acid (300 μL of 50/50) was then added into each tube followed by the addition of 20 μL of p-chlorophenylalanine. The samples were vortexed and centrifuged at 14,000 rpm for 10 min. The supernatant was analyzed by LC/MS/MS. […]

- bioavailability: 3%
SMILES: N[C@@H](Cc1ccc(O)c(O)c1)C(=O)O [levodopa]
